Calls of active or inactive are those of the source. The rule behind the calls is not given here.
How the values were obtained:
[1] = molecular target: V-type proton ATPase subunit C 1 (Homo sapiens) (UniProt P21283); test: Binding affinity to Atp6v1c1 (unknown origin) assessed as fold change in protein upregulation at 200 uM preincubated for 2 hrs followed by pronase addition and measured after 30 mins by coomassie blue staining based SDS-PAGE gel analysis
[2] = molecular target: Chromobox protein homolog 5 (Homo sapiens) (UniProt P45973); test: Binding affinity to Cbx5 (unknown origin) assessed as fold change in protein upregulation at 200 uM preincubated for 2 hrs followed by pronase addition and measured after 30 mins by coomassie blue staining based SDS-PAGE gel analysis
Sequence of Chromobox protein homolog 5 (Homo sapiens) (P45973 whole entry): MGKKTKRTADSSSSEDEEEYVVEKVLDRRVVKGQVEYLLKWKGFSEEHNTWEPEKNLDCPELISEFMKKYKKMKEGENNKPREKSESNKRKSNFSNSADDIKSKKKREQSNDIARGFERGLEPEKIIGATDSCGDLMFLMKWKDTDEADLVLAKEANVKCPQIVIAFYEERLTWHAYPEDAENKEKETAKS

[3] = molecular target: Far upstream element-binding protein 1 (Homo sapiens) (UniProt Q96AE4); test: Binding affinity to Fubp1 (unknown origin) assessed as fold change in protein upregulation at 200 uM preincubated for 2 hrs followed by pronase addition and measured after 30 mins by coomassie blue staining based SDS-PAGE gel analysis
[4] = molecular target: 10 kDa heat shock protein, mitochondrial (Homo sapiens) (UniProt P61604); test: Binding affinity to Hspe1 (unknown origin) assessed as fold change in protein upregulation at 200 uM preincubated for 2 hrs followed by pronase addition and measured after 30 mins by coomassie blue staining based SDS-PAGE gel analysis
Sequence of 10 kDa heat shock protein, mitochondrial (Homo sapiens) (P61604 whole entry): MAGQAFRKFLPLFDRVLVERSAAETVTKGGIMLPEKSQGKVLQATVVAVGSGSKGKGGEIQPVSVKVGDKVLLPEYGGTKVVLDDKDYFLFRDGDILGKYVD

[5] = molecular target: U6 snRNA-associated Sm-like protein LSm8 (Homo sapiens) (UniProt O95777); test: Binding affinity to Lsm8 (unknown origin) at 200 uM preincubated for 2 hrs followed by pronase addition and measured after 30 mins by coomassie blue staining based SDS-PAGE gel analysis
Sequence of U6 snRNA-associated Sm-like protein LSm8 (Homo sapiens) (O95777 whole entry): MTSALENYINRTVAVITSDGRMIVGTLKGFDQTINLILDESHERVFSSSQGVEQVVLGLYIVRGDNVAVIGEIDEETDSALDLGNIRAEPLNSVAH

[6] = test system: RNA polymerase II-associated factor 1 homolog; test: Binding affinity to Paf1 (unknown origin) at 200 uM preincubated for 2 hrs followed by pronase addition and measured after 30 mins by coomassie blue staining based SDS-PAGE gel analysis; details: Homo sapiens
[7] = test system: NRK-52E; test: Anti-renal-fibrosis activity in TGF-beta1 induced rat NRK-52E cells assessed as downregulation of fibronectin protein level by Western blot analysis; format: functional, cell-based; details: dose 5-40 µM
[8] = molecular target: ATP-dependent RNA helicase DHX8 (Homo sapiens) (UniProt Q14562); test: Binding affinity to Dhx8 (unknown origin) at 200 uM preincubated for 2 hrs followed by pronase addition and measured after 30 mins by coomassie blue staining based SDS-PAGE gel analysis
[9] = molecular target: Lysosome-associated membrane glycoprotein 2 (Homo sapiens) (UniProt P13473); test: Binding affinity to Lamp2 (unknown origin) assessed as fold change in protein upregulation at 200 uM preincubated for 2 hrs followed by pronase addition and measured after 30 mins by coomassie blue staining based SDS-PAGE gel analysis
[10] = molecular target: Stress-induced-phosphoprotein 1 (Homo sapiens) (UniProt P31948); test: Binding affinity to Stip1 (unknown origin) assessed as fold change in protein upregulation at 200 uM preincubated for 2 hrs followed by pronase addition and measured after 30 mins by coomassie blue staining based SDS-PAGE gel analysis
Sequence of Stress-induced-phosphoprotein 1 (Homo sapiens) (P31948 whole entry, looked up): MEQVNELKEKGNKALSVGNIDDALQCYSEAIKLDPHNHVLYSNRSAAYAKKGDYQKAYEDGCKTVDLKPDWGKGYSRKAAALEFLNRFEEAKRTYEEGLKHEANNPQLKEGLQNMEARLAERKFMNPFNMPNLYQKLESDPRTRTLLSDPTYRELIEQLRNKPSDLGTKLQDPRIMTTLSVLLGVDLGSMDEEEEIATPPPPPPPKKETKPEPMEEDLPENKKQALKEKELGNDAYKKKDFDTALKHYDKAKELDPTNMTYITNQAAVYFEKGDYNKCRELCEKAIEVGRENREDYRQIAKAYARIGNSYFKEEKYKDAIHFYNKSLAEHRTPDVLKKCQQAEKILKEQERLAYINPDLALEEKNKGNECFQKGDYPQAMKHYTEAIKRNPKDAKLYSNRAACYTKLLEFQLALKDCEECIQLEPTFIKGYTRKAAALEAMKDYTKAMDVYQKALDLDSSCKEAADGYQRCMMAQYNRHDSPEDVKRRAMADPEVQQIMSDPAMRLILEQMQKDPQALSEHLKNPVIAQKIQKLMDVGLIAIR

[11] = molecular target: Kinesin-like protein KIF21A (Homo sapiens) (UniProt Q7Z4S6); test: Binding affinity to Kif21a (unknown origin) at 200 uM preincubated for 2 hrs followed by pronase addition and measured after 30 mins by coomassie blue staining based SDS-PAGE gel analysis
Sequence of Kinesin-like protein KIF21A (Homo sapiens) (Q7Z4S6 whole entry): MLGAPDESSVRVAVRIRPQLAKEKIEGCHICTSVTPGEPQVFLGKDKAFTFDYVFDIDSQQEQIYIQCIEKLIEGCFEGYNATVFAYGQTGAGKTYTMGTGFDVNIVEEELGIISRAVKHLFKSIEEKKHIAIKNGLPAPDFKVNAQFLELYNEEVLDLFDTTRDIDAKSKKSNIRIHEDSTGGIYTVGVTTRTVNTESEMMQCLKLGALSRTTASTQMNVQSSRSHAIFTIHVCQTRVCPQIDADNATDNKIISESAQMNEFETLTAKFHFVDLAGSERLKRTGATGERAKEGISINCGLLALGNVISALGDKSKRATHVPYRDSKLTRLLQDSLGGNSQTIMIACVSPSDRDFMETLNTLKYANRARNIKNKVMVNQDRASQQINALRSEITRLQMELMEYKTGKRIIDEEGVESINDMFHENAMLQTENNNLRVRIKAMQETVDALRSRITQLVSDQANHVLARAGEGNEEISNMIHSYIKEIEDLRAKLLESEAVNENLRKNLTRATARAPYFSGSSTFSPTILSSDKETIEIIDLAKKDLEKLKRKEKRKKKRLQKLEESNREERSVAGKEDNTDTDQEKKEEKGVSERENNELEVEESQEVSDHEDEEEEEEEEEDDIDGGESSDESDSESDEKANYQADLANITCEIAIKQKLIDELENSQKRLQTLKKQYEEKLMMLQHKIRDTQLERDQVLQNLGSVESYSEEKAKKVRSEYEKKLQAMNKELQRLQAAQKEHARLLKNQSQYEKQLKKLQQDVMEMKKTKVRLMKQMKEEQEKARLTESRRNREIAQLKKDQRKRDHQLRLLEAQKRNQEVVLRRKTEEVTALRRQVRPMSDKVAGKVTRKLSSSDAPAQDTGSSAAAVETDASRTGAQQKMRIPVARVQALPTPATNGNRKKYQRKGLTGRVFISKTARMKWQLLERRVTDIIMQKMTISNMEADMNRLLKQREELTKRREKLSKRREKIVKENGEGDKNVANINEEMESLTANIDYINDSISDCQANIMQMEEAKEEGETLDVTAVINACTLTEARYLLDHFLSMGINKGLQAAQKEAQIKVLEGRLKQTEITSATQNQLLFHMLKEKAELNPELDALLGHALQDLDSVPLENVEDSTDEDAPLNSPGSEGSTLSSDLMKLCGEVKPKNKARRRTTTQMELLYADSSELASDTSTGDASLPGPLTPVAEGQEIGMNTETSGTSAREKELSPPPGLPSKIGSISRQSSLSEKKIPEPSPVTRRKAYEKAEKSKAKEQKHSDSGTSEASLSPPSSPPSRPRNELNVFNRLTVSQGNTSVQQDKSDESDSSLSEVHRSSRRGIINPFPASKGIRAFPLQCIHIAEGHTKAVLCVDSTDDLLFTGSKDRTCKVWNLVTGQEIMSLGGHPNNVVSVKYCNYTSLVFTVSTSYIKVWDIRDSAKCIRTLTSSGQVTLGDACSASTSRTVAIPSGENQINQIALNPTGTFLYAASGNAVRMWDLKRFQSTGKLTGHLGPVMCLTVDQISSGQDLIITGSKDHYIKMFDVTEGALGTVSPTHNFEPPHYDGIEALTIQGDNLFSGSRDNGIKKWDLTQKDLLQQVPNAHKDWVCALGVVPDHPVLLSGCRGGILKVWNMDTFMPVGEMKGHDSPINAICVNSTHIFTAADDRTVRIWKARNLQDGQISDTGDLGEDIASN

[12] = molecular target: Testin (Homo sapiens) (UniProt Q9UGI8); test: Binding affinity to Tes (unknown origin) assessed as fold change in protein upregulation at 200 uM preincubated for 2 hrs followed by pronase addition and measured after 30 mins by coomassie blue staining based SDS-PAGE gel analysis
Sequence of Testin (Homo sapiens) (Q9UGI8 whole entry): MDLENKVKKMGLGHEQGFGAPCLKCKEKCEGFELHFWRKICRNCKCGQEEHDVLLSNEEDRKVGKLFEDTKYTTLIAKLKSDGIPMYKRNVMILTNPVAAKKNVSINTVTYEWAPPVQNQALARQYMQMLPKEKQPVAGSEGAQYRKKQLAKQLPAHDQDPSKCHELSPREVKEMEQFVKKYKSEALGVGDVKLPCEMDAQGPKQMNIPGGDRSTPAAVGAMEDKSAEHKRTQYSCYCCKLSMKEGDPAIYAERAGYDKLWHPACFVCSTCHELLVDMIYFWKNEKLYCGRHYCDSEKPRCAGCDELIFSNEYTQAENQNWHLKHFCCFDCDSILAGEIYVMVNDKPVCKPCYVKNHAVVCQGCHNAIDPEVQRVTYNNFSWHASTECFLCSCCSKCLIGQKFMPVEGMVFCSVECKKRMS

[13] = test system: NRK-52E; test: Anti-renal-fibrosis activity in TGF-beta1 induced rat NRK-52E cells assessed as downregulation of collagen I expression at 40 uM; format: functional, cell-based
[14] = molecular target: Septin-5 (Homo sapiens) (UniProt Q99719); test: Binding affinity to Septin5 (unknown origin) assessed as fold change in protein upregulation at 200 uM preincubated for 2 hrs followed by pronase addition and measured after 30 mins by coomassie blue staining based SDS-PAGE gel analysis
[15] = test system: NRK-52E; test: Cytotoxicity against rat NRK-52E cells at 10 to 80 uM incubated for 48 hrs by CCK-8 assay; format: toxicity, cell-based; details: dose 10-80 µM
[16] = molecular target: Collagen alpha-1(I) chain (Homo sapiens) (UniProt P02452); test: Binding affinity to Col1a1 (unknown origin) at 200 uM preincubated for 2 hrs followed by pronase addition and measured after 30 mins by coomassie blue staining based SDS-PAGE gel analysis
[17] = molecular target: Glutathione hydrolase 7 (Homo sapiens) (UniProt Q9UJ14); test: Binding affinity to Ggt7 (unknown origin) at 200 uM preincubated for 2 hrs followed by pronase addition and measured after 30 mins by coomassie blue staining based SDS-PAGE gel analysis
Sequence of Glutathione hydrolase 7 (Homo sapiens) (Q9UJ14 whole entry): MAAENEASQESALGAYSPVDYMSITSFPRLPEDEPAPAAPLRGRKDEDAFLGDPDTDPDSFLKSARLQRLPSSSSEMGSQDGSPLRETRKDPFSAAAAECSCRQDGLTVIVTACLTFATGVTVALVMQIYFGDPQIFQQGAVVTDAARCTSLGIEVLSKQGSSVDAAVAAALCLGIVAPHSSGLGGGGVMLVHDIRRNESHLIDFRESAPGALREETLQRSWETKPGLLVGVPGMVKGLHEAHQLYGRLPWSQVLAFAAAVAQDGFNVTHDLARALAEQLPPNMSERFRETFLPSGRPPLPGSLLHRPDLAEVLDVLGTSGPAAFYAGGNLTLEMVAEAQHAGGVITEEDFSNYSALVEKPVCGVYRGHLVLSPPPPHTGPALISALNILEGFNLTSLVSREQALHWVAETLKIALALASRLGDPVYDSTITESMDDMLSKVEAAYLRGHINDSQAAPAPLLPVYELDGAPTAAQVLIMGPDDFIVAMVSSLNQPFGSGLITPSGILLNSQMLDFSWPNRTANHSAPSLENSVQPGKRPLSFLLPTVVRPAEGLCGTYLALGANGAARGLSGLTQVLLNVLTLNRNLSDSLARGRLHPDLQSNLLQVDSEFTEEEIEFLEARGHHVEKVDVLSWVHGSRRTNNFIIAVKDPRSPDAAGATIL

[18] = molecular target: Protein YIF1A (Homo sapiens) (UniProt O95070); test: Binding affinity to Yif1a (unknown origin) at 200 uM preincubated for 2 hrs followed by pronase addition and measured after 30 mins by coomassie blue staining based SDS-PAGE gel analysis
Sequence of Protein YIF1A (Homo sapiens) (O95070 whole entry): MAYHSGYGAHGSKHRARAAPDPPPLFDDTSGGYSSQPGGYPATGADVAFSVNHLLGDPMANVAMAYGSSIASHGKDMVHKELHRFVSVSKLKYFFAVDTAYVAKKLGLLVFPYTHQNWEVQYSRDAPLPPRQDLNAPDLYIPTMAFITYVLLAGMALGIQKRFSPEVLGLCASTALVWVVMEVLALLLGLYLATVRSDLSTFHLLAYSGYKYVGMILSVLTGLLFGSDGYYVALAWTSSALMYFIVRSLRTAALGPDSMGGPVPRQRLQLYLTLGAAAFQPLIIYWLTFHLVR

[19] = molecular target: CD2-associated protein (Homo sapiens) (UniProt Q9Y5K6); test: Binding affinity to Cd2ap (unknown origin) at 200 uM preincubated for 2 hrs followed by pronase addition and measured after 30 mins by coomassie blue staining based SDS-PAGE gel analysis
[20] = species on record: Homo sapiens; test: Binding affinity to Wdr95 (unknown origin) at 200 uM preincubated for 2 hrs followed by pronase addition and measured after 30 mins by coomassie blue staining based SDS-PAGE gel analysis
[21] = molecular target: Armadillo repeat-containing protein 10 (Homo sapiens) (UniProt Q8N2F6); test: Binding affinity to Armc10 (unknown origin) at 200 uM preincubated for 2 hrs followed by pronase addition and measured after 30 mins by coomassie blue staining based SDS-PAGE gel analysis
[22] = molecular target: Protein FAM91A1 (Homo sapiens) (UniProt Q658Y4); test: Binding affinity to Fam91a1 (unknown origin) assessed as fold change in protein upregulation at 200 uM preincubated for 2 hrs followed by pronase addition and measured after 30 mins by coomassie blue staining based SDS-PAGE gel analysis
[23] = molecular target: SWI/SNF-related matrix-associated actin-dependent regulator of chromatin subfamily D member 2 (Homo sapiens) (UniProt Q92925); test: Binding affinity to Smarcd2 (unknown origin) at 200 uM preincubated for 2 hrs followed by pronase addition and measured after 30 mins by coomassie blue staining based SDS-PAGE gel analysis
Sequence of SWI/SNF-related matrix-associated actin-dependent regulator of chromatin subfamily D member 2 (Homo sapiens) (Q92925 whole entry): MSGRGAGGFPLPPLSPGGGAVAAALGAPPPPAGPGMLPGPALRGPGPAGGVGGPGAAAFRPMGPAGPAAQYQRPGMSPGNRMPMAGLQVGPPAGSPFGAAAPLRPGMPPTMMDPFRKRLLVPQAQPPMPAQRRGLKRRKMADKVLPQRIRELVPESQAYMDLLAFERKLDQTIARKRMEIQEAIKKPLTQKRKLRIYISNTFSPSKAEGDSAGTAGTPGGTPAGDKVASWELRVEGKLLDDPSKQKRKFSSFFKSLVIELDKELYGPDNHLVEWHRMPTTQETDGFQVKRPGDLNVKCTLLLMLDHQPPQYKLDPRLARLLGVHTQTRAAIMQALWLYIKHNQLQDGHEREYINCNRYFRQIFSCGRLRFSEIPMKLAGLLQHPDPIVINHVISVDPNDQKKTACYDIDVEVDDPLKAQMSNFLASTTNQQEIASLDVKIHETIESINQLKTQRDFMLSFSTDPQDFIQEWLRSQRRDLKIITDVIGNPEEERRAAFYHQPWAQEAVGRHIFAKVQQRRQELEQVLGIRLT

[24] = molecular target: Deoxycytidine kinase (Homo sapiens) (UniProt P27707); test: Binding affinity to Dck (unknown origin) at 200 uM preincubated for 2 hrs followed by pronase addition and measured after 30 mins by coomassie blue staining based SDS-PAGE gel analysis
[25] = molecular target: Serine/threonine-protein kinase DCLK1 (Homo sapiens) (UniProt O15075); test: Binding affinity to Dclk1 (unknown origin) assessed as fold change in protein upregulation at 200 uM preincubated for 2 hrs followed by pronase addition and measured after 30 mins by coomassie blue staining based SDS-PAGE gel analysis
[26] = molecular target: Tropomyosin alpha-3 chain (Homo sapiens) (UniProt P06753); test: Binding affinity to Tpm3 (unknown origin) at 200 uM preincubated for 2 hrs followed by pronase addition and measured after 30 mins by coomassie blue staining based SDS-PAGE gel analysis
[27] = test system: NRK-52E; test: Anti-renal-fibrosis activity in TGF-beta1 induced rat NRK-52E cells assessed as downregulation of alpha-SMA protein level at 20 uM by Western blot analysis; format: functional, cell-based

Sequence of V-type proton ATPase subunit C 1 (Homo sapiens) (P21283 whole entry): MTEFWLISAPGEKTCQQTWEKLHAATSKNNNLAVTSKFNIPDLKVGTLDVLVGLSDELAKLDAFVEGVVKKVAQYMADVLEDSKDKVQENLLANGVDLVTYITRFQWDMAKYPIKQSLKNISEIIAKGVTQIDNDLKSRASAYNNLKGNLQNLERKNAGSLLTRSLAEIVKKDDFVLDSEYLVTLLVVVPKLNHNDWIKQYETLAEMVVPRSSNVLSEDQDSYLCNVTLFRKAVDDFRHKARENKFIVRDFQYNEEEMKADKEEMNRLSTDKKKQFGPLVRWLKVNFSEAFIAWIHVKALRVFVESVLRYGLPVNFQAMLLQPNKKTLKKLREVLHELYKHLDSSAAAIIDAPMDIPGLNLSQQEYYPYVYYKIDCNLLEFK

## COc1c(O)nc2c(O)cccc2c1OC
[1]
  fold change (FC): 1.21
[2]
  fold change (FC): 1.25
[3]
  fold change (FC): 1.29
[4]
  fold change (FC): 1.34
[5]
  Activity: Active
[6]
  Activity: Active
[7]
  Activity: Dose-Dependent Effect
[8]
  Activity: Active
[9]
  fold change (FC): 2.42
[10]
  fold change (FC): 1.33
[11]
  Activity: Active
[12]
  fold change (FC): 1.32
[13]
  Activity: Active
[14]
  fold change (FC): 1.48
[15]
  Activity: Non-Toxic
[16]
  Activity: Active
[17]
  Activity: Active
[18]
  Activity: Active
[19]
  Activity: Active
[20]
  Activity: Active
[21]
  Activity: Active
[22]
  fold change (FC): 1.36
[23]
  Activity: Active
[24]
  Activity: Active
[25]
  fold change (FC): 2.01
[26]
  Activity: Active
[27]
  Activity: Active
